Laboratory results published in ChEMBL document CHEMBL4382216, “Asymmetric synthesis and biological evaluation of imidazole- and oxazole-containing synthetic lipoxin A4 mimetics (sLXms)” (Eur J Med Chem, 2019).
Activity calls are given as the source filed them. The rule behind the calls is not given here.

Tests used:
Homo sapiens [1] = organism: Homo sapiens; assay: Activation of Luc-fused NFkB (unknown origin) expressed in non-stimulated human THP1 cells assessed as relative luminescence unit at 10^-12 M after 24 hrs by luciferase reporter gene assay (reference value: 100%); assay type: cell-based
Homo sapiens [2] = organism: Homo sapiens; assay: Activation of Luc-fused NFkB (unknown origin) expressed in non-stimulated human THP1 cells assessed as relative luminescence unit at 10^-11 M after 24 hrs by luciferase reporter gene assay (reference value: 100%); assay type: cell-based
Homo sapiens [3] = organism: Homo sapiens; assay: Activation of Luc-fused NFkB (unknown origin) expressed in non-stimulated human THP1 cells assessed as relative luminescence unit at 10^-10 M after 24 hrs by luciferase reporter gene assay (reference value: 100%); assay type: cell-based
Homo sapiens [4] = organism: Homo sapiens; assay: Activation of Luc-fused NFkB (unknown origin) expressed in non-stimulated human THP1 cells assessed as relative luminescence unit at 10^-9 M after 24 hrs by luciferase reporter gene assay (reference value: 100%); assay type: cell-based
Homo sapiens [5] = organism: Homo sapiens; assay: Activation of Luc-fused NFkB (unknown origin) expressed in non-stimulated human THP1 cells assessed as relative luminescence unit at 10^-8 M after 24 hrs by luciferase reporter gene assay (reference value: 100%); assay type: cell-based
Homo sapiens [6] = organism: Homo sapiens; assay: Activation of Luc-fused NFkB (unknown origin) expressed in non-stimulated human THP1 cells assessed as relative luminescence unit at 10^-7 M after 24 hrs by luciferase reporter gene assay (reference value: 100%); assay type: cell-based
Homo sapiens [7] = organism: Homo sapiens; assay: Activation of Luc-fused NFkB (unknown origin) expressed in non-stimulated human THP1 cells assessed as relative luminescence unit at 10^-6 M after 24 hrs by luciferase reporter gene assay (reference value: 100%); assay type: cell-based
[8] = target: T1, N-formyl peptide receptor 2 (Homo sapiens, UniProt P25090); assay: Agonist activity at ALX/FPR2 in human THP1 cells harboring NF-kB-Luc assessed as inhibition of LPS-induced NFkB signalling activation pretreated for 30 mins followed by LPS stimulation for 24 hrs by luciferase reporter gene assay; assay type: cell-based
T1 sequence (P25090 whole entry): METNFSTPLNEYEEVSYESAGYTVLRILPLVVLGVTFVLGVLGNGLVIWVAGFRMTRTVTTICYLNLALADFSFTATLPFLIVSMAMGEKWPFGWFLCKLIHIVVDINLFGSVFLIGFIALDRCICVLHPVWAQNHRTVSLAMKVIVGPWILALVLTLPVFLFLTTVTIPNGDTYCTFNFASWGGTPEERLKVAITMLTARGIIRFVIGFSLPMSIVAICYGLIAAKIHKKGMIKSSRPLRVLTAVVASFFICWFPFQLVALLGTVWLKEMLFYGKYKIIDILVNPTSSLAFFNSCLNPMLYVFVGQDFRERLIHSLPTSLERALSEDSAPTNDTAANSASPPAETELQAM

[9] = target: T1, N-formyl peptide receptor 2; assay: Agonist activity at ALX/FPR2 in human THP1 cells harboring NF-kB-Luc assessed as inhibition of LPS-induced NFkB signalling activation by measuring reduction in IFNgamma secretion pretreated for 30 mins followed by LPS stimulation for 24 hrs by electrochemiluminescence assay; assay type: cell-based
[10] = target: T1, N-formyl peptide receptor 2; assay: Agonist activity at ALX/FPR2 in human THP1 cells harboring NF-kB-Luc assessed as inhibition of LPS-induced NFkB signalling activation by measuring reduction in IL-12p70 secretion pretreated for 30 mins followed by LPS stimulation for 24 hrs by electrochemiluminescence assay; assay type: cell-based
[11] = target: T1, N-formyl peptide receptor 2; assay: Agonist activity at ALX/FPR2 in human THP1 cells harboring NF-kB-Luc assessed as inhibition of LPS-induced NFkB signalling activation by measuring reduction in TNFalpha secretion pretreated for 30 mins followed by LPS stimulation for 24 hrs by electrochemiluminescence assay; assay type: cell-based
[12] = target: T1, N-formyl peptide receptor 2; assay: Agonist activity at ALX/FPR2 in human THP1 cells harboring NF-kB-Luc assessed as inhibition of LPS-induced NFkB signalling activation by measuring reduction in IL-1beta secretion pretreated for 30 mins followed by LPS stimulation for 24 hrs by electrochemiluminescence assay; assay type: cell-based
[13] = target: T1, N-formyl peptide receptor 2; assay: Agonist activity at ALX/FPR2 in human THP1 cells harboring NF-kB-Luc assessed as inhibition of LPS-induced NFkB signalling activation by measuring reduction in IL-6 secretion pretreated for 30 mins followed by LPS stimulation for 24 hrs by electrochemiluminescence assay; assay type: cell-based
THP-1 [14] = assay: Cytotoxicity against human THP1 cells harboring NFkB-Luc assessed as LDH release at 10'12 M after 24 hrs by spectrophotometric method relative to control; assay type: cell-based; settings: thp-1, 24 h
THP-1 [15] = assay: Cytotoxicity against human THP1 cells harboring NFkB-Luc assessed as LDH release at 10'11 M after 24 hrs by spectrophotometric method relative to control; assay type: cell-based; settings: thp-1, 24 h
THP-1 [16] = assay: Cytotoxicity against human THP1 cells harboring NFkB-Luc assessed as LDH release at 10'10 M after 24 hrs by spectrophotometric method relative to control; assay type: cell-based; settings: thp-1, 24 h
THP-1 [17] = assay: Cytotoxicity against human THP1 cells harboring NFkB-Luc assessed as LDH release at 10'9 M after 24 hrs by spectrophotometric method relative to control; assay type: cell-based; settings: thp-1, 24 h
THP-1 [18] = assay: Cytotoxicity against human THP1 cells harboring NFkB-Luc assessed as LDH release at 10'8 M after 24 hrs by spectrophotometric method relative to control; assay type: cell-based; settings: thp-1, 24 h
THP-1 [19] = assay: Cytotoxicity against human THP1 cells harboring NFkB-Luc assessed as LDH release at 10'7 M after 24 hrs by spectrophotometric method relative to control; assay type: cell-based; settings: thp-1, 24 h
THP-1 [20] = assay: Cytotoxicity against human THP1 cells harboring NFkB-Luc assessed as LDH release at 10'6 M after 24 hrs by spectrophotometric method relative to control; assay type: cell-based; settings: thp-1, 24 h
HEK293 [21] = assay: Induction of intracellular calcium accumulation in HEK293 cells at 0.01 nM to 100 nM by Fluo-4 dye based fluorescence spectrophotometric assay; assay type: functional, cell-based; settings: Homo sapiens
[22] = target: T2, N-formyl peptide receptor 2 (Homo sapiens) (UniProt P25090); assay: Agonist activity at ALX/FPR2 in human THP1 cells harboring NF-kB-Luc assessed as inhibition of LPS-induced NFkB signalling activation by measuring NF-kB activation level at 10^-12 M pretreated for 30 mins followed by LPS stimulation for 24 hrs by luciferase reporter gene assay; assay type: cell-based; parameters: scale not given: the % may be the effect or the level left
T2 sequence (whole entry): T1 sequence (P25090 whole entry)

[23] = target: T2, N-formyl peptide receptor 2 (Homo sapiens); assay: Agonist activity at ALX/FPR2 in human THP1 cells harboring NF-kB-Luc assessed as inhibition of LPS-induced NFkB signalling activation by measuring IL-1beta secretion at 10^-12 M pretreated for 30 mins followed by LPS stimulation for 24 hrs by electrochemiluminescence assay (reference value: 100%); assay type: cell-based; parameters: scale not given: the % may be the effect or the level left
[24] = target: T2, N-formyl peptide receptor 2 (Homo sapiens); assay: Agonist activity at ALX/FPR2 in human THP1 cells harboring NF-kB-Luc assessed as inhibition of LPS-induced NFkB signalling activation by measuring IL-6 secretion at 10^-12 M pretreated for 30 mins followed by LPS stimulation for 24 hrs by electrochemiluminescence assay (reference value: 100%); assay type: cell-based; parameters: scale not given: the % may be the effect or the level left
[25] = target: T2, N-formyl peptide receptor 2 (Homo sapiens); assay: Agonist activity at ALX/FPR2 in human THP1 cells harboring NF-kB-Luc assessed as inhibition of LPS-induced NFkB signalling activation by measuring IL-12p70 secretion at 10^-12 M pretreated for 30 mins followed by LPS stimulation for 24 hrs by electrochemiluminescence assay (reference value: 100%); assay type: cell-based; parameters: scale not given: the % may be the effect or the level left
[26] = target: T2, N-formyl peptide receptor 2 (Homo sapiens); assay: Agonist activity at ALX/FPR2 in human THP1 cells harboring NF-kB-Luc assessed as inhibition of LPS-induced NFkB signalling activation by measuring IFNgamma secretion at 10^-12 M pretreated for 30 mins followed by LPS stimulation for 24 hrs by electrochemiluminescence assay (reference value: 100%); assay type: cell-based; parameters: scale not given: the % may be the effect or the level left
[27] = target: T2, N-formyl peptide receptor 2 (Homo sapiens); assay: Agonist activity at ALX/FPR2 in human THP1 cells harboring NF-kB-Luc assessed as inhibition of LPS-induced NFkB signalling activation by measuring TNFalpha secretion at 10^-12 M pretreated for 30 mins followed by LPS stimulation for 24 hrs by electrochemiluminescence assay (reference value: 100%); assay type: cell-based; parameters: scale not given: the % may be the effect or the level left
[28] = target: T2, N-formyl peptide receptor 2 (Homo sapiens); assay: Agonist activity at ALX/FPR2 (unknown origin) expressed in HEK293 cells co-expressing Galphaq assessed as induction of intracellular calcium accumulation at 2 nM by Fluo-4 dye based fluorescence spectrophotometric assay; assay type: functional, cell-based
HEK293 [29] = assay: Induction of intracellular calcium accumulation in HEK293 cells at 2 nM by Fluo-4 dye based fluorescence spectrophotometric assay; assay type: functional, cell-based; settings: Homo sapiens

Compound	IC50 [8]	IC50 ([11]; read-out: IC50)	IC50 ([13]; read-out: IC50)	IC50 [9]	IC50 [10]	IC50 [12]	Activity (Homo sapiens [1])	Activity (Homo sapiens [2])	Activity (Homo sapiens [3])	Activity (Homo sapiens [4])	Activity (Homo sapiens [5])	Activity (Homo sapiens [6])	Activity (Homo sapiens [7])	fold change (FC) (THP-1 [14])	also measured
COC(=O)CCC[C@H](O)[C@H](O)/C=C/c1nc(C)n(C)c1[C@H](C)O	27.8 nM			Not Active	Not Active	Not Active	3.1%		4.5%	3.4%		3.5%	2.4%		IC50 [11]: Not Active; IC50 [13]: Not Active
CCCCC[C@@H](O)c1ccccc1/C=C/[C@@H](O)[C@@H](O)CCCC(=O)OC							2.9%							0.9	Activity [22]: 80%; Activity [23]: 39.7%; Activity [24]: 61.1%; Activity [25]: 62.9%; Activity [26]: 83.9%; Activity [27]: 64.2%
CSCC[C@H](NC(=O)[C@@H](NC(=O)[C@H](CCSC)NC(=O)[C@H](Cc1ccc(O)cc1)NC(=O)[C@H](CCCCN)NC(=O)[C@@H](N)Cc1c[nH]c2ccccc12)C(C)C)C(=O)O															Activity [28]: Active; Activity (HEK293 [29]): inactive

The next lines start with results.

IC50 [8]	IC50 ([11]; read-out: IC50)	IC50 ([13]; read-out: IC50)	IC50 [9]	IC50 [10]	IC50 [12]	Compound	Activity (Homo sapiens [1])	Activity (Homo sapiens [2])	Activity (Homo sapiens [3])	Activity (Homo sapiens [4])	Activity (Homo sapiens [5])	Activity (Homo sapiens [6])	Activity (Homo sapiens [7])	fold change (FC) (THP-1 [14])	also measured
69.6 nM	6.7 nM	31.4 nM				CCCCC[C@H](O)c1nc(-c2ccccc2)oc1/C=C/[C@@H](O)[C@@H](O)CCCC(=O)OC(C)C	6.2%	4.5%	6.2%	5.3%	4.3%	4%	6.1%	1.1	IC50 ([9]; read-out: IC50): 2.5 nM; IC50 ([10]; read-out: IC50): 5.1 nM; IC50 ([12]; read-out: IC50): 3.2 nM; fold change (FC) (THP-1 [15]): 1.1; fold change (FC) (THP-1 [16]): 1; fold change (FC) (THP-1 [17]): 0.9; fold change (FC) (THP-1 [18]): 1; fold change (FC) (THP-1 [19]): 1; fold change (FC) (THP-1 [20]): 1; Activity (HEK293 [21]): inactive
37.3 nM	6.5 nM	6.8 nM	Not Active	Not Active	Not Active	CCCCC[C@@H](O)c1nc(-c2ccccc2)oc1/C=C/[C@@H](O)[C@@H](O)CCCC(=O)OC(C)C	3.4%	2.8%	3.2%	2.7%	2.6%	3%	2.7%		
